Experiment [1] concerns HIF-1 (HIF-dependent luciferase reporter, U2OS-HRE-luc cells). As to the kind of experiment: HIF-1-dependent luciferase reporter assay, U2OS-HRE-luc. Format: cell-based, human. As to conditions: U2OS-HRE-luc. The method, then: The ability of P1–P3 to disrupt HIF-1 function in cells was assessed using a HIF-1-dependent luciferase reporter assay.[15],[21] The assay uses human osteosarcoma U2OS cells, stably transfected with a HIF-dependent luciferase reporter construct (U2OS-HRE-luc), where activation of HIF results in an increase in luciferase expression.[15]
(§1) Endogenous HIF-1 luciferase reporter assays were conducted as previously reported in U2OS-HRE-luc[15] and MCF-7 cells.[46] For plasmid-expressed HIF-α luciferase reporter assays, MCF-7 and U2OS cells were transiently transfected with plasmids expressing HIF-1α, HIF-2α, or a blank control (pcDNA3.1-HIF-1α, pcDNA3.1-HIF-2α, or pcDNA3.1), a renilla-encoding control (phRL-TK), and a HIF-dependent firefly luciferase reporter construct (pGL2-TK-HRE), using Transfast (Promega) according to the manufacturer’s instructions. After 24 h, cells were recovered and plated (4000 cells/well) in 96-well plates (Perkin-Elmer) and incubated for 5 h before either hypoxic or aerobic incubation in presence or absence of cyclic peptide inhibitors. Firefly and renilla activities were determined using Dual-Glo Reagent (Promega) according to the manufacturer’s instructions. The luciferase signal was normalized using the corresponding renilla values.
(§2) Cells were treated with the stated concentrations of inhibitor (P1, P2, or P3) and incubated in normoxia for 4 h, followed by incubation in a hypoxic environment. All manipulation of cell pellets (e.g., lysis, mRNA, and protein extraction) was conducted in a hypoxic environment.

Experiment [2] has as its target T1, PAS-B domain of HIF-1α (Homo sapiens, UniProt Q16665).
T1 construct: Per-ARNT-Sim-B (PAS-B, amino acids 235–350) domains; His (N); made in house; host or cells: E. coli BL21(DE3)
As to the kind of experiment: Isothermal titration calorimetry, PAS-B. The format is binding. The conditions noted are these: ITC, 25 °C, pH 7.5, 10 µM PAS-B.

Experiment [3] deals with endogenous HIF-1α/HIF-1β interaction in MCF-7 cells. As to the kind of experiment: In situ proximity ligation assay (PLA), MCF-7. Format: cell-based. The conditions noted are these: 100 μM, MCF-7, hypoxia (1% O2) 4 h.
Description: The effect of P1 on the endogenous HIF-1α/HIF-1β interaction in intact cells was directly probed using an in situ proximity ligation assay (PLA);[30] primary antibodies (HIF-1α and HIF-1β here) raised in different species are bound by specific secondary antibodies that are tagged with a short DNA strand. The DNA on the interacting PLA probes forms a mini-plasmid that is amplified and bound by a red fluorescent dye. The HIF-1α/HIF-1β interaction is thus visualized as red dots in the DAPI-stained nuclei of MCF-7 and U2OS cells (Figure 4). We observed an increase in PLA signal in MCF-7 cells incubated in hypoxia (1% O2) for 4 h, indicating the expected formation of the HIF-1 dimer in hypoxia (Figure 4, panel 1 versus panel 2). […] The observed effect is not due to a reduction in HIF-1α by P1 (Western blot inset in Figure 4) and thus may be solely attributed to disruption of HIF-1α/HIF-1β dimers.
as §2
Duolink proximity ligation assay was conducted using the in situ PLA Kit (O-Link Bioscience, Uppsala, Sweden) according to the manufacturer’s instructions. […]

Experiment [4] concerns VEGF protein in hypoxic MCF-7 cells. The experiment is described as follows: VEGF protein ELISA, MCF-7. As to conditions: MCF-7, hypoxia, 100 μM. The format is cell-based, human. The method, then:
(§3) Cells were treated with the stated concentrations of inhibitor (P1, P2, or P3) and incubated in normoxia for 4 h, followed by incubation in a hypoxic environment. All manipulation of cell pellets (e.g., lysis, mRNA, and protein extraction) was conducted in a hypoxic environment. […]
(§4) manufacturer’s instructions.
(§5) The loaded beads were washed and blocked with the provide buffers. […]
(§6) reagent (RPN2232, GE Healthcare).
(§7) Fluorescent binding assay
(§8) Scientific, catalogue no. […]
(§9) followed by washing with 3 × 200 µL ELISA buffer. 95 µL of EMSA buffer was added to […]
(§10) The fluorescence of each well at
(§11) Isothermal Titration Calorimetry […]
(§12) iTC200 system (GE Healthcare).
(§13) P2) was dissolved in the same buffer.
(§14) Control experiments for P1 or P2
(§15) Quantification of VGEF-A protein by ELISA […]
(§16) incubation in hypoxia for 16h. VEGF-A protein concentration was quantified by human
For orientation: An ELISA detects its analyte on a solid surface through an enzyme-linked reagent.

For experiment [5], the system named is VEGF protein in hypoxic U2OS cells. The experiment is described as follows: VEGF protein ELISA, U2OS. The format is cell-based, human. The conditions noted are these: hypoxia, 100 μM. The method, then: as §3, §4, §5, §6, §7, §8, §9, §10, §11, §12, §13, §14, §15, §16
For experiment [6], the system named is CAIX mRNA in hypoxic U2OS cells. As to the kind of experiment: CAIX mRNA qPCR, U2OS. The conditions noted are these: hypoxia, 100 μM. The format is cell-based, human. The method, then:
as §2
Total RNA was extracted from MCF-7 and U2OS cells using RNeasy Mini Kit (74104, QIAGEN) and quantified using a Nanodrop ND-1000 spectrophotometer. Complementary DNA was synthesized in a 20 μL reaction containing 1 μg of total RNA, using qScript cDNA SuperMix (95048-100, Quanta Biosciences) according to the manufacturer’s instructions. Quantitative real-time PCRs were performed using Universal Taqman PCR master mix (Applied Biosystems) >and the Taqman gene expression assay of interest (Applied Biosystems) on an ABI StepOnePlus Real-Time PCR system (Applied Biosystems). Expression assays used in this study were HIF-1α (00936376_m1), VEGF-A (Hs00173626_m1), CAIX (Hs00154208_m1), LOX (Hs00942480_m1), HIF2α (Hs01026149_m1), CITED2 (Hs01897804_s1), and 18S (Hs99999901_m1). All expression values were normalized using expression of 18S.
In general terms: Quantitative PCR measures a nucleic acid by following its amplification.

The subject of experiment [7] is HIF-2 (HIF-dependent luciferase reporter, MCF-7 cells). The experiment is described as follows: HIF-2 luciferase reporter assay, MCF-7. The format is cell-based. The conditions noted are these: MCF-7, transfected HIF-2α.
Description: (§17) In addition, P1 had no effect on VEGF protein levels in hypoxic 786-O cells (Figure 6B). To further probe the effect of P1 on HIF-2, a luciferase reporter assay was developed and used. The assay was derived from the HIF-1 luciferase reporter assay detailed above (Figure 2C and D) and adapted for HIF-2 by replacing the plasmid encoding HIF-1α with the equivalent plasmid encoding HIF-2α. […] P2 and P3 also had no effect on HIF-2 in this assay (Figure S9).
as §1
In general terms: A reporter such as luciferase makes a cellular process visible.

In experiment [8] the test system is HIF-2 (HIF-dependent luciferase reporter, U2OS cells). The experiment is described as follows: HIF-2 luciferase reporter assay, U2OS. The format is cell-based, human. As to conditions: transfected HIF-2α.
Description: as §17, §1

“Also recorded” adds a separate entry of the source.

T1 sequence (Q16665 235-350): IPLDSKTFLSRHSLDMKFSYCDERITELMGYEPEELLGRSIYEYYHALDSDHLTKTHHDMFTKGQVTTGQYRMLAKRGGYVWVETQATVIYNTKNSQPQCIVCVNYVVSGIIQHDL

Regarding “Tat-cyclo-CRLMVL (head to tail) [P2, cyclo-CRLMVL tagged with Tat peptide via a disulfide bond; used as negative control]”, the “effect on luciferase reporter in hypoxia” value in experiment [1] (hypoxia (1% O2)) is reported as “did not show an effect”. For the same substance, the “effect on luciferase reporter in normoxia (basal)” value in experiment [1] (normoxia) is recorded as “did not show an effect”. Besides, the “binding to PAS-B domain” value in experiment [2] was “no binding; also recorded: did not bind”. In experiment [3], the “HIF-1 PLA signal” value is recorded as “did not have any effect on the PLA signal”. The VEGF protein level result in experiment [4] and in experiment [5] was “has no effect in either cell line” in each case. Moreover, in experiment [6], the “CAIX mRNA” value is recorded as “no effect”. The “effect on HIF-2 luciferase reporter signal” value in experiment [7] and in experiment [8] was “do not affect” each time.

The record behind these values is publication PMC3715890, “A Cyclic Peptide Inhibitor of HIF-1 Heterodimerization That Inhibits Hypoxia Signaling in Cancer Cells” (Journal of the American Chemical Society, 2013).
